Assay [1] has as its system BT-474 human breast cancer cells. Put plainly: Effect of drug treatment on GRP receptor binding (177Lu-AMBA) in BT-474 cells. In kind it is cell-based. The following applies: for change in 177Lu-AMBA binding (GRP receptor specific signal per cell) vs untreated controls, BT-474: Table 25, range 0.001-0.1 μM.
Procedure: BT-474 breast cancer cells (human primary invasive ductal carcinoma; ER+, PR+, amplified HER2/neu+) were obtained from the American Type Culture Collection. The growth medium for BT-474 cells is Hybri-care Medium (Cat No: 46X, ATCC) supplemented with 10% heat inactivated FBS (Hyclone, SH30070.03), 0.2% NaHCO3, and antibiotic/antimycotic “PSF-1×” (GibcoBRL, 15240-062) for a final concentration of penicillin-streptomycin (1×, 100 units/mL), and fungizone (0.25 μg/mL). […] Cells for binding experiments were plated on Day 0 at 5.6×10^4 cells/cm^2 in 96-well white/clear bottom microtiter plates (Falcon Optilux-I), or 96 well black/clear collagen I cellware plates (Beckton Dickinson Biocoat).
(§1) RPMI 1640 supplemented with 20 mM HEPES, 0.1% BSA (w/v), 0.5 mM PMSF (AEBSF), bacitracin (50 mg/500 ml), pH 7.4.
(§2) Incubations were stopped by the addition of 200 μL of ice-cold binding buffer. Plates were washed three more times with binding buffer, 140 μL of scintillation fluid was added to each well, the plates were sealed and analyzed on a Microβ plate reader (Microbeta Trilux, Perkin-Elmer).
Treatment: BT-474 cells were plated on Day 0 and treated on Days 1 and 2 (DT1, DT2).
The subject of assay [2] is PC-3 prostate cancer cells. The assay can be described thus: Effect of drug treatment on GRP receptor binding (177Lu-AMBA) in PC-3 cells. In kind it is cell-based, human. The following applies: for change in 177Lu-AMBA binding (GRP receptor specific signal per cell) vs untreated controls, PC-3: Table 25, range 0.001-0.1 μM.
Procedure: as §1, §2
PC-3 (human prostate adenocarcinoma, bone metastasis, AR-, ER) were obtained from the American Type Culture Collection. The growth medium for PC-3 cells is RPMI 1640 (10-041-CM, Mediatech, Inc), supplemented with 10% heat inactivated FBS (Hyclone, SH30070.03) and PSF-1× (as in Example LXVI). The binding buffer, lapatinib solutions, treatment method and cell binding assay is the same as in Example LXVI.
The test system of assay [3] is T47D human breast cancer cells. Put plainly: Effect of drug treatment on GRP receptor binding (177Lu-AMBA) in T47D cells. The class given is cell-based. Conditions: for change in 177Lu-AMBA binding (GRP receptor specific signal per cell) vs untreated controls, T47D: Table 25, range 0.001-0.1 μM. An excerpt:
T-47D breast cancer cells (human metastatic mammary gland ductal adenocarcinoma isolated from pleural effusion, ER+, PR+) were obtained from the American Type Culture Collection.

The target of assay [4] is T1, NMB-R (Rattus norvegicus, UniProt P24053).
T1 construct: C6, an NMB-R expressing rodent glioblastoma cell line; host or cells: C6 glioblastoma cells, intact adherent cells
T1 sequence (P24053 1-390): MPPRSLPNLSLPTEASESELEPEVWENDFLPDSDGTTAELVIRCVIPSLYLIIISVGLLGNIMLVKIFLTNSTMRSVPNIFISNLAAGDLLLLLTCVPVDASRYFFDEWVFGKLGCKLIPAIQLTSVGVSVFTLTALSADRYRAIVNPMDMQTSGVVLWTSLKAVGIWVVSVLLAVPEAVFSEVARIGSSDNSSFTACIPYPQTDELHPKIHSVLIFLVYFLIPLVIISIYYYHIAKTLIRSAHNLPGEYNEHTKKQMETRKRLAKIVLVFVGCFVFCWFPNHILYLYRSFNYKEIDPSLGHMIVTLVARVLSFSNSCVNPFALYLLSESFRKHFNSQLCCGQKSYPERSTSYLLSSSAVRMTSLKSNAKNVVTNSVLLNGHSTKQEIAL
The assay can be described thus: Competition with 125I-NMB for NMB-R in C6 cells (linker specificity).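 On all read-outs here: test cells: rodent glioblastoma C6 line carrying NMB-R, human prostate cancer PC3 line carrying GRP-R, affinity fitted by one-site competition nonlinear regression.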 In kind it is binding, rodent. The following applies: for receptor subtype preference (GRP-R vs NMB-R): from IC50 with 125I-NMB (C6) and 125I-BBN (PC3), cut off 10x the IC50 of [Tyr4]-BBN; for GRP-R and NMB-R (binds both) / GRP-R (GRP-R preferring): yes / —, cut off 10x the IC50 of [Tyr4]-BBN with 125I-NMB on C6 cells.
Procedure: Two cell lines, C6, an NMB-R expressing rodent glioblastoma cell line and PC3, a GRP-R expressing human prostate cancer cell line, were used in this assay. The affinity of various unlabeled compounds for each receptor subtype (NMB-R and GRP-R) was determined indirectly by measuring its ability to compete with the binding of ^125I-NMB or ^125I-BBN to its corresponding receptors in C6 and PC3 cells.
Cells for the assays were plated at a concentration of 9.6×10^4/well in 48 well poly-lysine coated plates (Beckton Dickinson Biocoat). PC3 were obtained from ATCC(CRL-1435) and cultured in RPMI 1640 (ATCC) supplemented with 2 mM L-glutamine, 1.5 g/L Sodium bicarbonate, 10 mM HEPES and 10% FBS. […] PC3 cells for the assays were plated at a concentration of 2.0×10^4 cells/well in 96-well white/clear bottom plates (Falcon Optilux-I). Plates were used for the assays on day 2 of the post-plating.
RPMI 1640 (ATCC) containing 25 mM HEPES, 0.2% BSA fraction V, 1.0 mM AEBSF (CAS # 3087-99-7) and 0.1% Bacitracin (CAS # 1405-87-4), pH 7.4. Custom made ^125I-[Tyr^0]NMB, >2.0 Ci/μmole (Amersham Life Science) [^125I-NMB] and commercially available ^125I-[Tyr^4]BBN, >2.0 Ci/μmole (Perkin Elmer Life Science) [^125I-BBN] were used as radioligands.
Using a 48-well plate assay system (for C6 study) competition experiments were performed using ^125I-NMB. […] Selection of compounds for the assay was based on linker subtype.
The binding parameters obtained from the studies were analyzed using a one-site competition non-linear regression analysis with GraphPad Prism. The relative affinity of various compounds for NMB-R in C6 cells were compared with those obtained using commercially available [Tyr^4]-BBN and [Tyr^0]-NMB. To distinguish the GRP-R preferring compounds from NMB-R plus GRP-R preferring compounds, IC50 values obtained for each compound were compared with those obtained from [Tyr^4-BBN with ^125I-NMB on C6 cells.

Consider `CC/C(=C(\c1ccc(O)cc1)c1ccc(OCCN(C)C)cc1)c1ccccc1` [Compounds 4-OH-Tamoxifen], for which the “change in 177Lu-AMBA binding (GRP receptor specific signal per cell) vs untreated controls, BT-474” value in assay [1] is −73%. The “change in 177Lu-AMBA binding (GRP receptor specific signal per cell) vs untreated controls, PC-3” value in assay [2] turned out to be 0%. Also, the “change in 177Lu-AMBA binding (GRP receptor specific signal per cell) vs untreated controls, T47D” value in assay [3] is given as −35%.

As to `C[C@]12CC[C@@H]3c4ccc(O)cc4CC[C@H]3[C@@H]1CC[C@@H]2O` [β2-estradiol], the “increase in 177Lu-AMBA binding (GRP receptor specific signal per cell)” value in assay [1] (BT-474, relative to untreated control, drug 0.1-1.0 μM (β2-estradiol 1 nM)) was found to be 47%. Besides, the “change in 177Lu-AMBA binding (GRP receptor specific signal per cell) vs untreated controls, BT-474” value in assay [1] turned out to be 47%. In addition, the “change in GRP receptor specific signal per cell (177Lu-AMBA binding)” value in assay [2] (PC-3, drug 0.1-1.0 μM (4-OH Tamoxifen 0.001-0.1 μM)) is on record as “no change”; in assay [3] (T-47D) it was “did not change”. In addition, the “change in 177Lu-AMBA binding (GRP receptor specific signal per cell) vs untreated controls, PC-3” value in assay [2] is given as 0%. The “change in 177Lu-AMBA binding (GRP receptor specific signal per cell) vs untreated controls, T47D” value in assay [3] is on record as 0%.

For DO3A-monoamide-Abu4-QWAVGHLM-NH2, in assay [4], the “receptor subtype preference (GRP-R vs NMB-R)” value is “dual affinity for both GRP-R and NMB-R”; the “GRP-R and NMB-R (binds both)” value is reported as “yes”.

For the molecule DO3A-monoamide-Aoc-QWAVGHL-Nle-NH2, in assay [4], the “receptor subtype preference (GRP-R vs NMB-R)” value is “dual affinity for both GRP-R and NMB-R”; the “GRP-R and NMB-R (binds both)” value is recorded as “Yes”.

Consider DO3A-monoamide-Apa3-QWAVGHLM-NH2, for which, in assay [4], the “receptor subtype preference (GRP-R vs NMB-R)” value was “dual affinity for both GRP-R and NMB-R”; the “GRP-R and NMB-R (binds both)” value is given as “yes”.

Regarding DO3A-monoamide-Cha-Cha-QWAVGHLM-NH2, in assay [4], the “receptor subtype preference (GRP-R vs NMB-R)” value is on record as “selective affinity towards GRP-R” and the “GRP-R (GRP-R preferring)” value is on record as “yes”.

DO3A-monoamide-Nal1-Bip-QWAVGHLM-NH2: in assay [4], the “receptor subtype preference (GRP-R vs NMB-R)” value is listed as “selective affinity towards GRP-R” and the “GRP-R (GRP-R preferring)” value is recorded as “yes”.

On to DO3A-monoamide-Nal1-Bpa4-QWAVGHLM-NH2, for which, in assay [4], the “receptor subtype preference (GRP-R vs NMB-R)” value is reported as “selective affinity towards GRP-R” and the “GRP-R (GRP-R preferring)” value was “yes”.

As to “Gln-Trp-Ala-Val-Gly-His-Leu-Met-NH2 [BBN7-14]”, the “receptor subtype preference (GRP-R vs NMB-R)” value in assay [4] is “did not show any preference”. Moreover, the “receptor preference in words (GRP-R / GRP-R and NMB-R)” value in assay [4] (wrapped cell: 'No selective preference' or 'preference for NMB-R') is listed as “No selective”.

“N-[4-[[[[4,7,10-Tris(carboxymethyl)-1,4,7,10-tetraazacyclododec-1-yl]acetyl]glycyl]amino]-3-methoxybenzoyl]-L-glutaminyl-L-tryptophyl-1-alanyl-L-valyl-glycyl-L-histidyl-L-leucyl-L-methioninamide [Compound L240]”: in assay [4], the “receptor subtype preference (GRP-R vs NMB-R)” value was “selective affinity to GRP-R”.
